Source: article PMC9586930, “Molecular insights into the distinct signaling duration for the peptide-induced PTH1R activation” (Nature Communications, 2022)
Residue numbers refer to the chain shown, from its start.

Legend:
Details in all cases: for ΔpEC50±SEM: relative to WT, n = 3 in triplicate; for ΔpEC50±SEM / Span±SEM: mean ± SEM; for Span±SEM: window between maximal response (Emax) and vehicle, n = 3
PTH1R Y191A mutant = molecular target: T1, PTH1R Y191A mutant (Homo sapiens, UniProt Q03431, Y191A); test: cAMP accumulation assay (GloSensor), PTH1R Y191A; format: cell-based
T1 construct: a flag-tag was fused to the N terminal of full-length PTH1R (WT or mutant); expressed in transfected cells; host or cells: HEK293T
T1 sequence (Q03431 27-593 Y191A): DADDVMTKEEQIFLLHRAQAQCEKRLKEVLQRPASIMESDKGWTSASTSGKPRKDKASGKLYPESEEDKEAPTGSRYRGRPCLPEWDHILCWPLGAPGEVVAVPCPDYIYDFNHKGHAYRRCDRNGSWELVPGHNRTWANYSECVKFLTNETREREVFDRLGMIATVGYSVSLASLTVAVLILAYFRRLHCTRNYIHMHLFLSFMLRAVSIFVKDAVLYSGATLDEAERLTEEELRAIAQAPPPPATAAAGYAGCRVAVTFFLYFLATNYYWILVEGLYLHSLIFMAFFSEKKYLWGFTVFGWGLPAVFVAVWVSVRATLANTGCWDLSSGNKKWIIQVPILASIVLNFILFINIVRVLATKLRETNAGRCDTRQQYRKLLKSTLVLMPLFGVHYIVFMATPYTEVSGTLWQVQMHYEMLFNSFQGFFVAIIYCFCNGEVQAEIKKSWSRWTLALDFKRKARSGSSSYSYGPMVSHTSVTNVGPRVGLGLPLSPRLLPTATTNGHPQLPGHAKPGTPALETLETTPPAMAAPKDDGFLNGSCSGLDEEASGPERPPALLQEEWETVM
Experimental: (§1) Human embryonic kidney 293 T (HEK293T, ATCC: CRL-1573) cells were transfected with a plasmid mixture consisting of pcDNA3.1-flag-PTH1R (WT or mutants) and the cAMP biosensor GloSensor-22F (Promega) at a ratio of 2:1 (see Supplementary Table 7 for a list of primers used in this study). After 24 h, transfected cells were plated onto a 384-well plate, which was treated with cell adherent reagent (Applygen) in advance. After another 12 h, cells were treated with Hank’s balanced salt solution for starvation and then incubated in CO2-independent media containing 4% GloSensor cAMP Reagent (Promega) at a volume of 5 μl per well and incubated for 20 min at RT before measurements for baseline luminescence (Spark Multimode microplate reader, TECAN). Next, test ligands were added at different concentrations from 10^−6 to 10^−13 M before second measurement. Finally, data were normalized to 100% of the maximal PTH (1-34) response for WT PTH1R using a sigmoidal dose-response in GraphPad Prism.
(§2) Statistical analyses were performed on at least three individual datasets and analysed using GraphPad Prism software. Bars represent differences in the calculated agonist potency (pEC50) and maximum agonist response (Emax) for each mutant relative to the WT receptor. Data are mean± s.e.m. from at least three independent experiments, performed in triplicates. ns, not significant, ^nsP > 0.01; ^*P < 0.01; ^**P < 0.001; ^***P < 0.0001 (one-way analysis of variance (ANOVA) followed by Dunnett’s test, compared with the response of the WT). For dose-response experiments, data were normalized and analyzed using nonlinear curve fitting for the log (agonist) versus response (three parameters) curves.

PTH1R T430A mutant = molecular target: T2, PTH1R T430A mutant (Homo sapiens, UniProt Q03431, T430A); test: cAMP accumulation assay (GloSensor), PTH1R T430A; format: cell-based
T2 construct: a flag-tag was fused to the N terminal of full-length PTH1R (WT or mutant); expressed in transfected cells; host or cells: HEK293T
T2 sequence (Q03431 27-593 T430A): T1 sequence (Q03431 27-593 Y191A) with A165Y, T404A
Experimental: as §1, §2

PTH1R T178A mutant = tested on: T3, PTH1R T178A mutant; test: cAMP accumulation assay (GloSensor), PTH1R T178A; format: cell-based, human
T3 construct: a flag-tag was fused to the N terminal of full-length PTH1R (WT or mutant); expressed in transfected cells; host or cells: HEK293T
Experimental: as §1, with “After” for “Human embryonic kidney 293 T (HEK293T, ATCC: CRL-1573) cells were transfected with a plasmid mixture consisting of pcDNA3.1-flag-PTH1R (WT or mutants) and the cAMP biosensor GloSensor-22F (Promega) at a ratio of 2:1 (see Supplementary Table 7 for a list of primers used in this study). After”
Statistical analyses were performed on at least three individual datasets and analysed using GraphPad Prism software. […] Data are mean± s.e.m. from at least three independent experiments, performed in triplicates. ns, not significant, ^nsP > 0.01; ^*P < 0.01; ^**P < 0.001; ^***P < 0.0001 (one-way analysis of variance (ANOVA) followed by Dunnett’s test, compared with the response of the WT). For dose-response experiments, data were normalized and analyzed using nonlinear curve fitting for the log (agonist) versus response (three parameters) curves.

Substance | span (from the WT) (PTH1R Y191A mutant; PTH1R Y1911.43A, replicate 1) | ΔpEC50 (from the WT) (PTH1R Y191A mutant; PTH1R Y1911.43A, replicate 1) | span (from the WT) (PTH1R Y191A mutant; PTH1R Y1911.43A, replicate 2) | ΔpEC50 (from the WT) (PTH1R Y191A mutant; PTH1R Y1911.43A, replicate 2) | span (from the WT) (PTH1R Y191A mutant; PTH1R Y1911.43A, replicate 3) | ΔpEC50 (from the WT) (PTH1R Y191A mutant; PTH1R Y1911.43A, replicate 3) | ΔpEC50±SEM (PTH1R Y191A mutant) | ΔpEC50 (from the WT) (PTH1R Y191A mutant; replicate 1) | ΔpEC50 (from the WT) (PTH1R Y191A mutant; replicate 2) | ΔpEC50 (from the WT) (PTH1R Y191A mutant; replicate 3) | Span±SEM (PTH1R Y191A mutant) | span (from the WT) (PTH1R T430A mutant; PTH1R T430ECL3A, replicate 1) | ΔpEC50 (from the WT) (PTH1R T430A mutant; PTH1R T430ECL3A, replicate 1) | span (from the WT) (PTH1R T430A mutant; PTH1R T430ECL3A, replicate 2) | ΔpEC50 (from the WT) (PTH1R T430A mutant; PTH1R T430ECL3A, replicate 2) | span (from the WT) (PTH1R T430A mutant; PTH1R T430ECL3A, replicate 3) | ΔpEC50 (from the WT) (PTH1R T430A mutant; PTH1R T430ECL3A, replicate 3) | ΔpEC50±SEM (PTH1R T430A mutant) | ΔpEC50 (from the WT) (PTH1R T430A mutant; replicate 1) | ΔpEC50 (from the WT) (PTH1R T430A mutant; replicate 2) | also measured
H-AVAEIQLMHQRAKWIQDARRRAFLHKLIAEIHTAEI-OH [LA-PTH, long-acting PTH analog, modified PTH/PTHrP hybrid] | 133.3 | -0.163 | 153.3 | -0.013 | 159.2 | -0.095 | -0.09±0.04 | -0.163 | -0.013 | -0.095 | 148.60±7.84 | 172.2 | -1.056 | 195.6 | -1.067 | 155.2 | -1.166 | -1.10±0.03 | -1.056 | -1.067 | ΔpEC50 (from the WT) (PTH1R T430A mutant; replicate 3): -1.166; Span±SEM (PTH1R T430A mutant): 174.33±11.17; span (from the WT) (PTH1R T178A mutant; PTH1R T1781.30A, replicate 1): 104.1; ΔpEC50 (from the WT) (PTH1R T178A mutant; PTH1R T1781.30A, replicate 1): -0.079; span (from the WT) (PTH1R T178A mutant; PTH1R T1781.30A, replicate 2): 116.4; ΔpEC50 (from the WT) (PTH1R T178A mutant; PTH1R T1781.30A, replicate 2): 0; span (from the WT) (PTH1R T178A mutant; PTH1R T1781.30A, replicate 3): 180.3; ΔpEC50 (from the WT) (PTH1R T178A mutant; PTH1R T1781.30A, replicate 3): -0.07; ΔpEC50±SEM (PTH1R T178A mutant): -0.05±0.02; ΔpEC50 (from the WT) (PTH1R T178A mutant; replicate 1): -0.079; ΔpEC50 (from the WT) (PTH1R T178A mutant; replicate 2): 0; ΔpEC50 (from the WT) (PTH1R T178A mutant; replicate 3): -0.07; Span±SEM (PTH1R T178A mutant): 133.60±23.62
H-AVSEHQLLHDKGKSIQDLRRRELLEKLL-{Aib}-KLHTA-NH2 [ABL, Abaloparatide, an analog of PTHrP, short-acting PTH1R agonist] | 197.4 | -2.59 | 251.3 | -2.509 | 242 | -2.365 | -2.49±0.07 | -2.59 | -2.509 | -2.365 | 230.23±16.63 | 230.5 | -0.76 | 190.2 | -0.775 | 191.7 | -0.865 | -0.8±0.03 | -0.76 | -0.775 | ΔpEC50 (from the WT) (PTH1R T430A mutant; replicate 3): -0.865; Span±SEM (PTH1R T430A mutant): 204.13±13.19; span (from the WT) (PTH1R T178A mutant; PTH1R T1781.30A, replicate 1): 120.4; ΔpEC50 (from the WT) (PTH1R T178A mutant; PTH1R T1781.30A, replicate 1): -0.829; span (from the WT) (PTH1R T178A mutant; PTH1R T1781.30A, replicate 2): 180.3; ΔpEC50 (from the WT) (PTH1R T178A mutant; PTH1R T1781.30A, replicate 2): -0.74; span (from the WT) (PTH1R T178A mutant; PTH1R T1781.30A, replicate 3): 96.78; ΔpEC50 (from the WT) (PTH1R T178A mutant; PTH1R T1781.30A, replicate 3): -0.62; ΔpEC50±SEM (PTH1R T178A mutant): -0.73±0.06; ΔpEC50 (from the WT) (PTH1R T178A mutant; replicate 1): -0.829; ΔpEC50 (from the WT) (PTH1R T178A mutant; replicate 2): -0.74; ΔpEC50 (from the WT) (PTH1R T178A mutant; replicate 3): -0.62; Span±SEM (PTH1R T178A mutant): 132.49±24.86
H-SVSEIQLMHNLGKHLNSMERVEWLRKKLQDVHNF-OH [PTH, Teriparatide, human PTH 1-34, long-acting peptide agonist of PTH1R] | 132.4 | -0.995 | 179.6 | -0.805 | 268.7 | -0.706 | -0.84±0.08 | -0.995 | -0.805 | -0.706 | 164.77±14.05 | 194 | 0.303 | 170.6 | 0.384 | 159.7 | 0.286 | -0.32±0.03 | 0.303 | 0.384 | ΔpEC50 (from the WT) (PTH1R T430A mutant; replicate 3): 0.286; Span±SEM (PTH1R T430A mutant): 174.77±10.12; span (from the WT) (PTH1R T178A mutant; PTH1R T1781.30A, replicate 1): 113.4; ΔpEC50 (from the WT) (PTH1R T178A mutant; PTH1R T1781.30A, replicate 1): -0.148; span (from the WT) (PTH1R T178A mutant; PTH1R T1781.30A, replicate 2): 160.5; ΔpEC50 (from the WT) (PTH1R T178A mutant; PTH1R T1781.30A, replicate 2): -0.301; span (from the WT) (PTH1R T178A mutant; PTH1R T1781.30A, replicate 3): 167.8; ΔpEC50 (from the WT) (PTH1R T178A mutant; PTH1R T1781.30A, replicate 3): -0.188; ΔpEC50±SEM (PTH1R T178A mutant): -0.21±0.05; ΔpEC50 (from the WT) (PTH1R T178A mutant; replicate 1): -0.148; ΔpEC50 (from the WT) (PTH1R T178A mutant; replicate 2): -0.301; ΔpEC50 (from the WT) (PTH1R T178A mutant; replicate 3): -0.188; Span±SEM (PTH1R T178A mutant): 147.23±17.05
